According to publication PMC9529094, “Identification of natural cytochalasins as leads for neglected tropical diseases drug discovery” (PLoS ONE, 2022):
Read-outs that look alike come from different tables or passages of the source.

How the values were obtained:
[1] = in vitro; type: in vitro ADME; conditions: pH 7.4, 0.5 μM compound, 0.25 mg/mL microsomes
Description: The metabolic stability of the cytochalasins was evaluated in human pooled liver human microsomes (20 mg/ml, GIBCO) and pooled liver CD1 mouse microsomes (20 mg/ml, GIBCO). Test cytochalasins were prepared at a concentration of 0.5 μM and incubated with 0.25 mg/mL liver microsomes at pH 7.4), and the DMSO concentration was lower than 1%. The reaction was started by adding the cofactor NADPH at […]. Samples were taken at time point 0 (immediately following the addition of the co-factor), 5, 10, 20, 30 and 60 minutes. The reaction was stopped by adding quench solution containing acetonitrile:methanol (1:1) (internal standard tolbutamide at 50 nM). The samples were centrifuged (3500 rpm/30 min.) to obtain the pellet of precipitated microsomal protein. The supernatant fractions were quantified by LC-MS/MS (liquid chromatography-tandem mass spectrometry) Prominence UFLC (Shimadzu Corporation, Kyoto, Japan) and interfaced with an LCMS-8045 triple quadrupole mass spectrometer (Shimadzu Corporation, Kyoto, Japan) with an electrospray ionization source (ESI). The peak area ratios (analyte/internal standard) were converted to the % remaining using the area ratio at time 0 as 100%. The half-life (t1/2 = ln(2)/k) in minutes and intrinsic clearance (Clint = k x 1000/(0.25)) in μL/min/mg were calculated using a nonlinear regression from the % remaining versus the incubation time. From this plot, the slope (k) was determined. The chromatogram for analysis was obtained on a Supelco Ascentis express C18 column (3 cm x 2.1 mm, 5 μM). The mobile phases consisted of water + 0.1% formic acid (A) and acetonitrile + 0.1% formic acid (B). The mobile phase was eluted in binary gradient mode, and the gradient was as follows: 0 min, 95% A; 0.05 mins. 95% A; 0.3 mins: 2% A; 0.7 mins: 2% A; 0.8 mins: 95% A; 1.15 mins 95% A; and 2.0 mins 95% A. The run time was 2 minutes, the sample injection volume was 10 μL, and the flow rate was 0.7 mL/min.

[2] = test system: intracellular L. infantum amastigotes; experiment: microbe, parasite or virus in culture; type: cell-based, Leishmania infantum; conditions: for IC50: intracellular amastigotes in THP-1 macrophages, 120 h, read-out: L. infantum IC50 (μM ± SD); for SI^2 (CC50 THP-1/IC50 L. infantum) / SI^4 (CC50 HepG2/IC50 L. infantum): selectivity index
Description: The epimastigote forms of the T. cruzi Tulahuen strain, which expresses the E. coli β-galactosidase gene lacZ [11], were grown in liver infusion tryptone (LIT) supplemented with 10% FCS (Cultilab) and 1% pen/strep (Sigma–Aldrich) at 28°C. Metacyclogenesis from epimastigotes to trypomastigotes was induced by the incubation of the epimastigotes in Grace’s insect medium (Sigma-Aldrich, 28°C) every 5 days. After 5 days, the trypomastigote forms were used to infect the HFF-1 cells. The promastigote forms of L. infantum were maintained in Schneider’s insect medium (Sigma-Aldrich) supplemented with 10% FCS (Cultilab) and 1% pen/strep (Sigma-Aldrich) at 28°C and subcultured every 6 or 7 days.
In the intracellular amastigote assay, THP-1 cells were seeded at 2x10^4/well (RPMI-1640, 100 μL) with phorbol 12-myristate 13-acetate (PMA) at 20 ng/mL for differentiation into macrophages. After incubation for 72 h (5% CO2, 37°C), the medium was aspirated, and late-stage L. infantum promastigotes were added (2x10^5/well, 100 μL). Following 24 h of incubation, the medium was aspirated to clear extracellular parasites, and the compounds were added in serial dilutions (2-fold) to final concentrations of 64–0.12 μM. The plates included negative controls (100% growth) and MIL (64–0.12 μM) as a positive control. After 120 h of incubation, the medium was removed, and the cells were fixed in methanol and stained with Giemsa. The average number of intracellular amastigotes per THP-1-cell was determined using an inverted microscope and a cell counter. Growth inhibition is expressed as a percentage of the average number of amastigotes per macrophage in the negative control wells. The IC50 values were obtained using GraphPad Prism version 8.0.
The analyses were performed using GraphPad Prism version 8.0 (GraphPad Software, San Diego, CA, USA). Both the IC50 and CC50 values were calculated by adjusting the sigmoid dose-response curves, and the selectivity index (SI) values were determined by CC50/IC50 [16]. Statistical analyses were performed using one-way ANOVA followed by Dunnett’s multiple comparison test.

[3] = physchem; type: physicochemical; conditions: pH 7.4, from LC retention time calibration; read-out: LogD 7.4 (Oct/buff)
Description: To analyse cytochalasin lipophilicity, a methodology based on the retention time of molecules in stationary phase was used in LC-MS/MS (liquid chromatography-tandem mass spectrometry) Prominence UFLC (Shimadzu Corporation, Kyoto, Japan) and an interface with an LCMS-8045 triple quadrupole mass spectrometer (Shimadzu Corporation, Kyoto, Japan) with an electrospray ionization source (ESI). The chromatogram was obtained using a Supelco Ascentis express RP amide HPLC column (5 cm x 2.1 mm, 2.7 μM). The mobile phases consisted of 5% methanol in 10 mM ammonium acetate pH 7.4 (A) and 100% methanol (B). The mobile phase was eluted in binary gradient mode, and the gradient was as follows: 0 min, 95% A; 0.3 mins. 100% A; 5.2 mins. 0% A; 5.6 mins. 0% A; 5.8 mins. 100% A; 7.0 mins. And 100% A. The run time was 7 minutes, and the sample injection volume was 5 μL. Test compounds were prepared at 1.0 mg/mL by adding the stock solution at (1:1) mobile phases A:B (internal standard at 200 nM), and the DMSO concentration was lower than 2%. […]. The retention time (in minutes) of each of the eight standards was plotted against their LogD values. The resulting equation for the calibration curve (y = mx + b) was used to calculate the LogD values for the cytochalasins.

[4] = test system: L. infantum; experiment: Screening of natural product collection against L. infantum (cell infection assay); type: cell-based; conditions: Leishmania infantum; compound concentration of 50 μM
Description: A screening of a natural product collection was performed by using cell assays for infection with Trypanosoma cruzi and Leishmania infantum. The collection includes 320 compounds from the metabolic classes terpenes, alkaloids, peptides and amides that were isolated by plant species or endophytic fungi. For further evaluation in this study, cytochalasins A-D (CAS numbers: CytA: 14110-64-6, CytB: 14930-96-2, CytC: 22144-76-9, CytD: 22144-77-0) were obtained from Sigma-Aldrich (St. Louis, MO, USA). The purity of these compounds was ≥97%. The stock solution of the compounds was prepared in 100% DMSO (dimethyl sulfoxide—Sigma-Aldrich).

[5] = CD1, mouse, read-out: Mouse liver microsome (MsLM) CLint(mic)
[6] = human, read-out: Human liver microsome (HLM) CLint(mic)
[7] = Leishmania infantum, THP-1, 120 h

C=C1[C@@H](C)[C@H]2[C@H](Cc3ccccc3)NC(=O)[C@]23OC(=O)/C=C/C(=O)CCC[C@@H](C)C/C=C/[C@H]3[C@@H]1O [Cytochalasin A]
microsomal CLint [1, 5]: 167 ± 9.12 µL/min/mg
microsomal CLint [1, 6]: 7.86 ± 2.05 µL/min/mg
IC50 [2, 7]: 2.76 ± 1.17 µM
SI^2 (CC50 THP-1/IC50 L. infantum) [2]: 6.17
SI^4 (CC50 HepG2/IC50 L. infantum) [2]: 7.65
chromatographic logD [3]: 3.907 ± 0.014
inhibition at 50 µM [4]: 100%

C=C1[C@@H](C)[C@H]2[C@H](Cc3ccccc3)NC(=O)[C@]23[C@H](OC(C)=O)/C=C/[C@@](C)(O)C(=O)[C@@H](C)C/C=C/[C@H]3[C@@H]1O [Cytochalasin D]
microsomal CLint [1, 5]: 163 ± 22.4 µL/min/mg
IC50 [2, 7]: 22.5 ± 0.97 µM
SI^2 (CC50 THP-1/IC50 L. infantum) [2]: 5.42
SI^4 (CC50 HepG2/IC50 L. infantum) [2]: 5.46
chromatographic logD [3]: 3.043 ± 0.004
inhibition at 50 µM [4]: 64.9%

CC(=O)OC1C=CC(C)(O)C(=O)C(C)CC=CC2C(O)C(C)=C(C)C3C(Cc4ccccc4)NC(=O)C123 (stereo not drawn) [Cytochalasin C]
microsomal CLint [1, 6]: 144 ± 15.8 µL/min/mg
IC50 [2, 7]: 23.2 ± 4.9 µM
SI^2 (CC50 THP-1/IC50 L. infantum) [2]: 3.65
SI^4 (CC50 HepG2/IC50 L. infantum) [2]: 0.96
chromatographic logD [3]: 3.434 ± 0.003
inhibition at 50 µM [4]: 58.5%

C=C1[C@@H](C)[C@H]2[C@H](Cc3ccccc3)NC(=O)[C@]23OC(=O)/C=C/[C@H](O)CCC[C@@H](C)C/C=C/[C@H]3[C@@H]1O [Cytochalasin B]
microsomal CLint [1, 5]: 62.9 µL/min/mg
microsomal CLint [1, 6]: 217 ± 6.05 µL/min/mg
IC50 [2, 7]: 22 to 23 µM
IC50 [2]: 23.9 ± 3.02 µM
SI^2 (CC50 THP-1/IC50 L. infantum) [2]: 4.57
SI^4 (CC50 HepG2/IC50 L. infantum) [2]: 1.93
chromatographic logD [3]: 3.361 ± 0.008
inhibition at 50 µM [4]: 57.7%
